# Results taken from patent US12286442B2, “Methods and materials for increasing transcription factor eb polypeptide levels” (University of Pittsburgh—Of the Commonwealth System of …, priority 2019, dated 2025).
# Assays:
# [1] = test system: BEAS-2B cells; assay: Toxicity: compound concentration needed to induce greater than 50 percent of cell loss; assay type: cell-based, human; conditions: 18 hours incubation
# Description: (§1) Approximately 2300 primary and immortalized human bronchial epithelial cells (BEAS-2B) stably expressing TFEB-EGFP in 25 μL of HITEs media with 10% FBS were dispensed into 384 well plate (Black with glass bottom) and incubated for 8 hours. Compound serial dilution (DMEM low glucose media with 2% FBS, 25 μL volume) were prepared using a robotic liquid hander. Compound solution were then added to the cell plate and incubated for 18 hours. Cells were then fixed with 4% PFA followed by DAPI staining. TFEB localization was imaged on the GFP channel along with the DAPI signal using a Cytation 5 high content imager. Images were processed through Biotek Gen5 software. Specifically, the DAPI signal was used as the primary mask to quantify the nuclear TFEB-GFP signal. Cytosolic TFEB-GFP signal was quantified through expanding the primary mask. The TFEB nuclear/cytosol ratios were calculated from nuclear TFEB-GFP signal/cytosol TFEB-GFP signal, which determined the compound efficacies.
# Toxicity was determined by determining the compound concentration needed to induce greater than 50 percent of cell loss. For toxicity, cell loss of greater than 50 percent at a concentration that equals or is greater than 25 μM was represented as cell loss of greater than 50 percent at a concentration less than 25 μM and greater than 1 μM was represented as and cell loss of greater than 50 percent at a concentration that equals or is less than 1 μM was represented as “+++.” The assay results for compounds 1-202, 214-248, 332, 333, and 352-402 are shown in Table A.
# [2] = test system: TFEB; assay: High content screen measuring TFEB nuclear accumulation (TFEB nuclear/cytosol ratio) in BEAS-2B cells stably expressing TFEB-EGFP; assay type: cell-based, human; conditions: 18 hours incubation
# Description: FIG. 3. High content screen assay (384 well) measuring TFEB nuclear accumulation. Approximately 2500 primary and immortalized human bronchial epithelial cells (BEAS-2B) stably expressing TFEB-EGFP in 25 μL of HITEs media with 10% FBS were dispensed into 384 well plate (Black with glass bottom) and incubated for 8 hours. Compound serial dilution (DMEM low glucose media with 2% FBS, 25 μL volume) were prepared using a robotic liquid hander. Compound solutions were then added to the cell plate and incubated for 18 hours. Cells were then fixed with 4% PFA followed by DAPI staining. TFEB localization was imaged on the GFP channel along with the DAPI signal using a Cytation 5 high content imager. Images were processed through Biotek Gen5 software; specifically, the DAPI signal was used as the primary mask to quantify the nuclear TFEB-GFP signal. The cytosolic TFEB-GFP signal was quantified through expanding the primary mask. The TFEB nuclear/cytosol ratios were calculated from nuclear TFEB-GFP signal/cytosol TFEB-GFP signal, which determined the compound efficacy. […] Compound activities (μM) were determined by the minimal compound concentration needed to increase TFEB nuclear/cytosol ratio by 25%. Activity: “−” equals >25 μM; “+” equals between 25 μM and >10 μM; “++” equals between ≤10 μM and >1 μM; and “+++” equals […]. N=4.
# as §1
# Compounds efficacies (μM) were determined by the minimal compound concentration needed to increase TFEB nuclear/cytosol ratio by 25%. Activity: “+” equals >25 μM; “++” equals between ≤25 μM and >1 μM; and “+++” equals ≤1 μM.
# A high-content imaging screen was conducted using Beas2B cells that stably express GFP-TFEB.
Compound,toxicity (compound concentration needed to induce greater than 50 percent of cell loss) [1],efficacy (minimal compound concentration needed to increase TFEB nuclear/cytosol ratio by 25%) [2]
Cc1nc2ccc(Nc3nc(-c4ccncc4)nc4c(C)cccc34)cc2o1 [Compound 377],+ (cell loss of greater than 50 percent at a concentration that equals or is greater than 25 μM was represented as),++ (“++” equals between ≤25 μM and >1 μM)
Fc1cccc2c(Nc3ccc4ncsc4c3)nc(-c3ccncc3)nc12 [Compound 372],+ (cell loss of greater than 50 percent at a concentration that equals or is greater than 25 μM was represented as),+++ (“+++” equals ≤1 μM)
Fc1cccc(Nc2nc(-c3cncnc3)nc3ccccc23)c1 [Compound 8],+ (cell loss of greater than 50 percent at a concentration that equals or is greater than 25 μM was represented as),+ (“+” equals >25 μM)
c1ccc(CCNc2nc(-c3ccncc3)nc3ccccc23)nc1 [Compound 171],+ (cell loss of greater than 50 percent at a concentration that equals or is greater than 25 μM was represented as),+ (“+” equals >25 μM)
c1ccc2c(Nc3ccc4cn[nH]c4c3)nc(-c3ccncc3)nc2c1 [Compound 11],+ (cell loss of greater than 50 percent at a concentration that equals or is greater than 25 μM was represented as),+++ (“+++” equals ≤1 μM)
c1ccc2c(Nc3ccc4cc[nH]c4c3)nc(-c3ccncc3)nc2c1 [Compound 25],++ (cell loss of greater than 50 percent at a concentration less than 25 μM and greater than 1 μM was represented as),+++ (“+++” equals ≤1 μM)
Fc1cc(Nc2nc(-c3ccncc3)cc3ncccc23)cc2sc(C3CC3)nc12 [Compound 246],+ (cell loss of greater than 50 percent at a concentration that equals or is greater than 25 μM was represented as),+++ (“+++” equals ≤1 μM)
Fc1cc(Nc2nc(-c3ccncc3)cc3ncccc23)cc2cc[nH]c12 [Compound 239],+ (cell loss of greater than 50 percent at a concentration that equals or is greater than 25 μM was represented as),++ (“++” equals between ≤25 μM and >1 μM)
Cc1cccc2c(Nc3ccc4ncsc4c3)nc(-c3ccncc3)nc12 [Compound 371],+ (cell loss of greater than 50 percent at a concentration that equals or is greater than 25 μM was represented as),+++ (“+++” equals ≤1 μM)
c1ccc2c(Nc3ccc4[nH]ncc4c3)cc(-c3ccncc3)nc2c1 [Compound 68],+ (cell loss of greater than 50 percent at a concentration that equals or is greater than 25 μM was represented as),+ (“+” equals >25 μM)
c1ccc2c(Nc3ccc4sncc4c3)nc(-c3cncs3)nc2c1 [Compound 392],+ (cell loss of greater than 50 percent at a concentration that equals or is greater than 25 μM was represented as),+ (“+” equals >25 μM)
c1ccc2c(Nc3ccc4[nH]ccc4c3)cc(-c3ccncc3)nc2c1 [Compound 67],+ (cell loss of greater than 50 percent at a concentration that equals or is greater than 25 μM was represented as),+ (“+” equals >25 μM)
Fc1cccc(Nc2cc(-c3ccncc3)nc3ccccc23)c1 [Compound 69],+ (cell loss of greater than 50 percent at a concentration that equals or is greater than 25 μM was represented as),+ (“+” equals >25 μM)
c1ccc2c(Nc3cccc4[nH]ccc34)nc(-c3ccncc3)nc2c1 [Compound 97],+ (cell loss of greater than 50 percent at a concentration that equals or is greater than 25 μM was represented as),+++ (“+++” equals ≤1 μM)
c1ccc2c(Nc3ccc4cnccc4c3)nc(-c3ccncc3)nc2c1 [Compound 14],+ (cell loss of greater than 50 percent at a concentration that equals or is greater than 25 μM was represented as),+ (“+” equals >25 μM)
COc1ccc2nc(-c3ccncc3)nc(Nc3ccc4[nH]ccc4c3)c2c1 [Compound 113],++ (cell loss of greater than 50 percent at a concentration less than 25 μM and greater than 1 μM was represented as),+++ (“+++” equals ≤1 μM)
c1ccc2c(Nc3ccc4[nH]ncc4c3)nc(C3CCNCC3)nc2c1 [Compound 76],+ (cell loss of greater than 50 percent at a concentration that equals or is greater than 25 μM was represented as),+ (“+” equals >25 μM)
c1ccc2c(Nc3ccc4c(c3)OCO4)nc(-c3ccncc3)nc2c1 [Compound 12],+ (cell loss of greater than 50 percent at a concentration that equals or is greater than 25 μM was represented as),+++ (“+++” equals ≤1 μM)
Cc1cnccc1-c1nc(Nc2ccc3[nH]ncc3c2)c2ccccc2n1 [Compound 45],+ (cell loss of greater than 50 percent at a concentration that equals or is greater than 25 μM was represented as),+ (“+” equals >25 μM)
Cc1cc2cc(Nc3nc(-c4ccncc4)nc4ccccc34)ccc2[nH]1 [Compound 62],+++ (cell loss of greater than 50 percent at a concentration that equals or is less than 1 μM was represented as “+++.”),+++ (“+++” equals ≤1 μM)
CN(C)CCn1c(=O)n(-c2ccccc2)c(=O)c2ccccc21 [Compound 228],+ (cell loss of greater than 50 percent at a concentration that equals or is greater than 25 μM was represented as),+ (“+” equals >25 μM)
c1cc(-c2nc(Nc3ccc4[nH]ncc4c3)c3cnccc3n2)ccn1 [Compound 85],+ (cell loss of greater than 50 percent at a concentration that equals or is greater than 25 μM was represented as),+++ (“+++” equals ≤1 μM)
CCc1nc2ccc(Nc3nc(-c4ccncc4)nc4ccc(OC)cc34)cc2s1 [Compound 149],++ (cell loss of greater than 50 percent at a concentration less than 25 μM and greater than 1 μM was represented as),++ (“++” equals between ≤25 μM and >1 μM)
CC(C)c1nc2ccc(Nc3nc(-c4ccncc4)nc4ccccc34)cc2s1 [Compound 94],+ (cell loss of greater than 50 percent at a concentration that equals or is greater than 25 μM was represented as),+++ (“+++” equals ≤1 μM)
Cc1nc2ccc(Nc3nc(-c4ccncc4)nc4c(C)cccc34)cc2s1 [Compound 378],+ (cell loss of greater than 50 percent at a concentration that equals or is greater than 25 μM was represented as),+++ (“+++” equals ≤1 μM)
